The star is where a group is joined. Palmitoyl = CCCCCCCCCCCCCCCC(=O)*
Key:
[1] = test system: Schwann cells (cell line RT4-D6P2T); assay: WST-1 proliferation assay of Schwann cells in PA or collagen gels; format: cell-based, rat; conditions: for Schwann cell proliferation compared to backbone-PA gel: by 7 days of culture; for Schwann cell proliferation (viability measurements) compared to backbone-PA gel: day 1 of culture
Description: (§1) Cells were purchased from ATCC (cell line RT4-D6P2T) and cultured in Dulbecco's Modified Eagle's Medium (DMEM) with 10% fetal bovine serum (FBS). Cells were cultured to confluence, treated with 0.25% trypsin, centrifuged, and resuspended in PBS for a final concentration of 3500 cells/ml for WST-1 proliferation assays and 10,000 cells/ml for immunocytochemistry (ICC).
In order to synthesize the backbone-PA (consisting of only palmitoyl-VVAAEENH2) (SEQ ID NO: 3), the molecule was dissolved in aqueous 150 mM NaCl, 3 mM KCl, and NaOH solution to obtain a final 1 wt % solution at a pH between 7.2 and 7.4. In order to fabricate mixtures containing epitope-bearing PAs IKVAV (SEQ ID NO: 2) and RGDS (SEQ ID NO: 1) (consisting of palmitoyl-VVAAEE-NH2(SEQ ID NO: 3) with appended peptides, either RGDS (Arg-Gly-Asp-Ser) (SEQ ID NO: 1) or IKVAV (Ile-Lys-Val-Ala-Val) (SEQ ID NO: 2)), the backbone-PA was dissolved in aqueous 150 mM NaCl, 3 mM KCl, and NaOH solution to obtain a 1.33 wt % solution at a pH between 7.2 and 7.4. The epitope-containing PA was then dissolved with the same solution to obtain a 1 wt % solution at a pH between 7.2 and 7.4. The 1.33 wt % PA solution was then mixed in a 3:1 ratio with the 1% bioactive epitope solution creating a final bioactive PA solution of 1 wt % PA and 0.25 wt % bioactive epitope. The three resulting solutions (backbone-PA, RGDS-PA (SEQ ID NO: 1), and IKVAV-PA (SEQ ID NO: 2)) were then heated to 80° C. for 30 min in a water bath and left in the bath for slowcooling to 37° C. overnight (refs. 10,11; herein incorporated by reference in their entireties).
(§2) Following completion of the slow cooling, each of the PA solutions was mixed with Schwann cell suspension in a 4:1 ratio. A final cell density of 3500 cells/ml was used for the WST-1 proliferation assays and 10,000 cells/ml for immunocytochemistry studies.
(§3) A […] volume of gelling solution consisting of 20 mM CaCl2, 150 mM NaCl, and 3 mM KCl was pipetted onto a glass slide to form a thin film. The PA-Schwann cell suspensions were then pipetted in […] aliquots onto the thin film, instantly forming a string-like gel, with cells encapsulated within. These cell-embedded gels were maintained free floating in DMEM with 10% FBS in culture plates and incubated at 37° C. Medium was changed every 72 h.
(§4) Volumetric ratios of 1 ml HEPES, 10 ml 10XPBS, 87 ml Collagen 10 mg/mL, and 2 ml Schwann cell PBS suspension were combined and mixed gently. Final cell density of 3500 cells/ml was used for the WST-1 proliferation assays and 10,000 cells/ml, for immunocytochemistry studies. The mixture was then pipetted into a culture well (either a 96-well plate or 2-welled microscopy slides), and after 1 h of curing and solidification at 37° C., medium was added gently to the wells and changed every 3 days.
To evaluate the viability of cells within the gels, WST-1 reagent (Roche Applied Science, Indianapolis, Ind., USA) was used for each PA-cell and collagen gelecell complex. WST-1 assay has been widely used to measure cell proliferation. Aligned PA-cell gels along with collagen-cell gels were fabricated through the aforementioned methods at a final cell density of 3500 cells/ml. Gels were then cultured in 96-well plates for various time periods (days 1, 7, 14, and 21). Following each time point, gels were incubated for 90 min in medium containing 10% WST-1 assay reagent. Following incubation, […] of the conditioned medium were then transferred to a 96-well reading plate, and absorption values were read in a spectrophotometer at 450 nm. Measurements were repeated in sets of four.

[2] = test system: Schwann cells (cell line RT4-D6P2T); assay: Immunocytochemistry of actin and vinculin (focal adhesion protein) of Schwann cells in gels; format: cell-based, rat; conditions: 48 h culture
Description: as §1, §2, §3, §4
PA-cell gels along with collagen-cell gels were fabricated through the aforementioned methods at a final cell density of 10,000 cells/ml. […] Specimens were then viewed with confocal microscopy (Confocal SP1 MP-Inverted, Leica Microsystems Inc., Buffalo Grove, Ill.) using oil magnification, and images were recorded.

| Substance | Schwann cell proliferation compared to backbone-PA gel [1] | Schwann cell proliferation (viability measurements) compared to backbone-PA gel [1] | day at which Schwann cell growth was maximal ([1]; no significant expansion or contraction at day 21) | actin appearance, RGDS-PA compared with IKVAV-PA gels [2] | time over which Schwann cell proliferation was statistically increased vs. backbone-PA ([1]; p<0.05, ANOVA and Tukey-Kramer) | Schwann cell proliferation, rank among all groups ([1]; through 21 days of culture) | Schwann cell proliferation with time in gel ([1]; days 1, 7, 14, 21) | spatial arrangement of cytoskeletal actin of Schwann cells (actin stain) [2] |
| --- | --- | --- | --- | --- | --- | --- | --- | --- |
| IKVAV-PA: palmitoyl-VVAAEE-NH2 with appended IKVAV (Ile-Lys-Val-Ala-Val), mixed with backbone-PA: 1 wt % PA and 0.25 wt % bioactive epitope | significantly higher | proliferated more rapidly | 14 days | no significant difference |  |  |  |  |
| RGDS-PA: palmitoyl-VVAAEE-NH2 with appended RGDS (Arg-Gly-Asp-Ser), mixed with backbone-PA: 1 wt % PA and 0.25 wt % bioactive epitope | significantly higher | proliferated more rapidly |  | no significant difference | ≤ 21 days | highest among all groups |  |  |
| palmitoyl-VVAAEENH2 (Palmitoyl-VVAAEE-NH2) [backbone-PA] |  |  |  |  |  |  | increasing proliferation with time | marked linear arrangement |

From US20170021056A1, “PEPTIDE AMPHIPHILE BIOMATERIALS FOR NERVE REPAIR” (Northwestern University, priority 2015, published 2017)
